From patent publication US9718809B2, “Bisarylsulfonamides useful in the treatment of inflammation and cancer” (Kancera AB, priority 2011, dated 2017) come the findings set out here.

Where a name gives a salt, the structure may show the parent alone.

One data set has as its system F-2,6-P2 in SW620 cells. The data set can be described thus: Quantification of F-2,6-P2 (Van Schaftingen coupled enzyme assay) in SW620 cells. It is filed as cell-based. The note with it: Homo sapiens, SW-620, read-out: IC50 based on quantification of F-2,6-P2. The text has this: (§1) A method for quantification of F-2,6-P2 has been described by Van Schaftingen et al. (1982) Eur. J. Biochem. 129, 191-5. This sensitive assay is based on the potent activation of pyrophosphate dependent phosphofructokinase-1 (PPi-PFK) from potato tubers by F-2,6-P2. The use of a series of coupled enzymes leads to a consumption of NADH (nicotinamide adenine dinucleotide) that can be followed spectrophotometrically (an updated protocol is available in Van Schaftingen, (1984) Methods of Enzymatic Analysis (Bergmeyer, H. U., ed.), 3rd edn., vol. 6, pp. 335-341, Verlag Chemie, Weinheim). A protocol for measurements in 96-well microtiter plate format is also available (Bruni et al., (1989) Anal. Biochem. 178, 324-6).
(§2) The levels of F-2,6-P2 have been determined using the van Shaftingen assay as described in the protocol below, in six different cancer cell lines endogenously expressing varying levels of the different isoforms of PFK-2/BPase-2 (MCF-7, PANC-1, NUGC-3, SW480, SW620 and MIA PaCa-2). All reagents were purchased from commercial sources or prepared in-house.
Cell line E (SW620, human colorectal adenocarcinoma): SW620 cells (ATCC-CCL-227), lot. no. 58483168. Cells were seeded at a concentration of ˜350 000 cells/mL in 100 μL growth medium (˜35 000 cells/well).
(§3) Growth medium (cell lines B-F): Dulbecco's Modified Eagle's Medium, DMEM, VWR, LONZ12-604F; 10% FBS, Invitrogen, 10270-106. […]

The test system of the next data set is F-2,6-P2 in SW480 cells. The data set can be described thus: Quantification of F-2,6-P2 (Van Schaftingen coupled enzyme assay) in SW480 cells. Type of data set: cell-based. Conditions: Homo sapiens, read-out: IC50 based on quantification of F-2,6-P2.
Text: as §1, §2
Cell line D (SW480, human colorectal adenocarcinoma): SW480 cells (ATCC-CCL-228), lot. no. 58471880. Cells were seeded at a concentration of ˜350 000 cells/mL in 100 μL growth medium (˜35 000 cells/well).
as §3

The test system of another data set is PANC-1 cells. In words: Inhibition of cancer cell proliferation, total cellular protein (Sulphorhodamine B), PANC-1. The note with it: Homo sapiens, 72 h, read-out: IC50 based on quantitation of total cellular protein after treatment. On the procedure:
(§4) To assess the antiproliferative response elicited by the compounds of the present invention in different tumour cell lines, total cellular protein in samples was quantified using the Sulphorhodamine B kit, TOX6, (Sigma-Aldrich). The protocol is based on quantitation of total cellular protein after indicated treatments and incubation times using the Sulphorhodamine B kit, TOX6, (Sigma-Aldrich).
(§5) Briefly, after protein precipitation using TCA according to the manufacturer's instructions, the sulphorhodamine dye (80 μL/well) was added to the air-dried wells. After 20 min incubation at room temperature, the dye was discarded and the samples were gently rinsed with 1% HOAc until clear. After air drying, bound dye was solubilised in 200 μL 10 mM Tris base, and the absorbance of dye was measured at 565 nm. To quantify growth, samples were collected also at t=0 h, and the resulting absorbance was set to 100%.
(§6) For experiments studying the effect of the herein described compounds per se, i.e. without combination treatment with cisplatin, the above protocol was applied with the following modifications. See Table II for details for each specific cell line. Briefly, cells were plated at a density of 6,000 cells/well 96-well Corning Costar tissue culture plates (CLS3596, Sigma-Aldrich) in assay medium and allowed to attach over night at 37° C., 5% CO2. Day 2 the compounds were diluted ½ in dose response curve mode in 100% DMSO, required volume was transferred to assay medium to a maximal DMSO concentration of 0.1%. The diluted compounds were added to the cells with a starting dose response concentration of 100 μM. All compounds were tested in duplicate plates.
(§7) After protein precipitation using TCA according to the manufacturer's instructions, the sulforhodamine B dye (50 μL/well) was added to the air-dried wells. After 20 min incubation at room temperature, the dye was discarded and the samples were gently rinsed with 1% HOAc until clear. After air drying, bound dye was solubilised in 100 μL 10 mM Tris base, and the absorbance of dye was measured at 530 nm and a background absorbance (subtract from the measurement at 530 nm) at 690 nm. To quantify growth, samples were collected also at t=0 h.

A further data set deals with SW480 cells. In words: Inhibition of cancer cell proliferation, total cellular protein (Sulphorhodamine B), SW480. The note with it: Homo sapiens, 72 h, read-out: IC50 based on quantitation of total cellular protein after treatment. On the procedure: as §4, §5, §6
After protein precipitation using TCA according to the manufacturer's instructions, the sulforhodamine B dye (50 μL/well) was added to the air-dried wells. […] After air drying, bound dye was solubilised in 100 μL 10 mM Tris base, and the absorbance of dye was measured at 530 nm and a background absorbance (subtract from the measurement at 530 nm) at 690 nm. To quantify growth, samples were collected also at t=0 h.

A further data set relates to NUGC-3 cells. The data set can be described thus: Inhibition of cancer cell proliferation, total cellular protein (Sulphorhodamine B), NUGC-3. Conditions: Homo sapiens, 72 h, read-out: IC50 based on quantitation of total cellular protein after treatment. The procedure:
as §4, §5, §6, §7

For data set [1], the system named is F-2,6-P2 in MIA PaCa-2 cells. In words: Quantification of F-2,6-P2 (Van Schaftingen coupled enzyme assay) in MIA PaCa-2 cells. Type of data set: cell-based. The note with it: Homo sapiens, read-out: IC50 based on quantification of F-2,6-P2.
Text: as §1, §2
Cell line F (MIA PaCa-2, human pancreatic carcinoma): MIA PaCa-2 cells (ATCC-CRL-1420), lot. no. 59270201. Cells were seeded at a concentration of ˜250 000 cells/mL in 100 μL growth medium (˜25 000 cells/well). […]

Another data set concerns NMRI mice. The data set can be described thus: In vivo tolerance in NMRI mice. The arrangement: species or system mouse. The note with it: 25 and 45 mg/kg. On the procedure: In vivo tolerance was tested in NMRI mice using Examples 157 and 183 in 2 doses (25 and 45 mg/kg), following intraperitoneal injections daily for seven days.
For another data set, the system named is F-2,6-P2 in NUGC-3 cells. In words: Quantification of F-2,6-P2 (Van Schaftingen coupled enzyme assay) in NUGC-3 cells. It is filed as cell-based. The note with it: Homo sapiens; NUGC-3 cells seeded at 25 000 cells/well; read-out: IC50 based on quantification of F-2,6-P2.
Text: as §1, §2
Cell line C (NUGC-3, human gastric cancer cell line): NUGC-3 cells (JCRB0822), lot no. 04272009. Growth medium: RPMI1640, #R8758, Sigma-Aldrich; 10% FBS, Invitrogen, 10270-106 or Dulbecco's Modified Eagle's Medium, DMEM, VWR, LONZ12-604F; 10% FBS, Invitrogen, 10270-106. Cells were seeded at a concentration of ˜350 000 cells/mL in 100 μL growth medium (˜35 000 cells/well).
Starvation medium (cell lines A-F): DMEM/F12 without phenol red and glucose free, SVA, 991373; 0.25% FBS, Invitrogen, 10270-106.
Induction medium (cell lines A-F): DMEM/F12 without phenol red and glucose free, SVA, 991373; 0.25% FBS, Invitrogen, 10270-106 (same as starvation medium).
Cells were seeded in 96-well Corning Costar tissue culture plates (CLS3595, Sigma-Aldrich) using the concentrations specified above for the different cell lines A-F and incubated over night at 37° C. and 5% CO2. Row A in the plate was left empty and the cell lines added to rows B-H. Next day the growth medium was discarded and replaced with 100 μL starvation medium. The plates were incubated for 18 h at 37° C. and 5% CO2. After 18 h of starvation the cells were induced with 100 μL compound or control solutions. Compounds were either tested in two concentrations (50 μM and 10 μM) or in dose response curves starting from 50 μM. The final DMSO concentration in assay plates was 0.5%. Also a dose response curve of a reference inhibitor was included in row H on each plate. All compounds were tested in duplicate plates. Compounds (in 96 well CLS 3365, Sigma-Aldrich plates) were serial diluted in DMSO from 10 mM compound DMSO stock solutions with Janus (automated liquid handling workstation from PerkinElmer). Five μL were transferred to a Greiner deep well plate (736-0155, VWR) with 495 μL starvation medium. The final start concentration of compounds in the dilution plate was 100 μM, 1% DMSO. For compounds tested as single points, 10 mM compound solutions were diluted five fold in DMSO to 2 mM, followed by the transfer of 5 μL to separate dilution plates with 495 μL starvation medium. The final concentrations of compounds in these dilution plates were 100 or 20 μM, respectively, and final concentration of DMSO was 1%. The plates were incubated at 37° C. and 5% CO2 for 1 h, followed by the addition of 10 μL 20 mM D-glucose in starvation medium. Controls, with and without 1 mM glucose, were included in row B. The final assay volume was 210 μL per well. After 2 h of incubation at 37° C. and 5% CO2, the supernatants were discarded and the cells lysed by the addition of 25 μL 250 mM NaOH. The plates were incubated at 37° C. and 5% CO2 for 5 min followed by an addition of 75 μL MilliQ dH2O. The supernatants were further diluted with 210 μL MilliQ dH2O to a final concentration of 20 mM NaOH. 200 μL were transferred to NUNC 96-well plates (7322661, VWR) and the plates were sealed and stored at −20° C. until analysis. […]

Take `COCC(C)OC(=O)c1ccc(NS(=O)(=O)c2cc(Cl)c(Cl)s2)cc1O` (stereo not drawn) [Example 194, 2-Methoxy-1-methylethyl 4-{[(4,5-dichlorothiophen-2-yl)sulfonyl]amino}-2-hydroxybenzoate]: in the data set on F-2,6-P2 in SW620 cells, the IC50 is 0.8 µM.
As to `O=C(OCCCN1CCOCC1)c1ccc(NS(=O)(=O)c2c(Cl)sc(Cl)c2Cl)cc1O` [Example 164, 3-Morpholin-4-ylpropyl 2-hydroxy-4-{[(2,4,5-trichloro-3-thienyl)sulfonyl]amino}benzoate], the IC50 with F-2,6-P2 in SW480 cells was found to be 5.4 µM.
In the case of `O=C(OCCCN1CCOCC1)c1ccc(NS(=O)(=O)c2cc(-c3ccc4c(c3)CCO4)c(Cl)s2)cc1O` [Example 163, 3-Morpholin-4-ylpropyl 4-({[5-chloro-4-(2,3-dihydro-1-benzofuran-5-yl)-2-thienyl]sulfonyl}amino)-2-hydroxybenzoate trifluoroacetate], the IC50 in the data set with PANC-1 cells came out at 30.2 µM.
Same read-out and setting: for `CC(C)OC(=O)c1ccc(NS(=O)(=O)c2cc(Cl)c(Cl)s2)cc1O` [Example 68, Isopropyl 4-{[(4,5-dichloro-2-thienyl)sulfonyl]amino}-2-hydroxybenzoate] the value was 15.6 µM.
Regarding `COCCOC(=O)c1ccc(NS(=O)(=O)c2cccc(-c3cc(F)ccc3F)c2)cc1O` [Example 172, 2-Methoxyethyl 4-{[(2′,5′-difluorobiphenyl-3-yl)sulfonyl]amino}-2-hydroxybenzoate], the IC50 in the data set with SW480 cells turned out to be 15.9 µM.
For the compound `COC(=O)c1ccc(NS(=O)(=O)c2cc(-c3ccccc3O)c(Cl)s2)cc1O` [Example 156, Methyl 4-({[5-chloro-4-(2-hydroxyphenyl)-2-thienyl]sulfonyl}amino)-2-hydroxybenzoate], the figures for the IC50 with F-2,6-P2 in SW620 cells and in the data set on PANC-1 cells were 2.8 µM and 16.1 µM, respectively.
With `COC(=O)c1ccc(NS(=O)(=O)c2cc(-c3cc(F)ccc3F)c(Cl)s2)cc1O` [Example 45, Methyl 4-({[5-chloro-4-(2,5-difluorophenyl)-2-thienyl]sulfonyl}amino)-2-hydroxybenzoate], the IC50 in the data set on NUGC-3 cells came out at 22.5 µM.
Same read-out and setting: for `COC(=O)c1ccc(NS(=O)(=O)c2cccc(-c3cc(F)ccc3O)c2)cc1O` [Example 134, Methyl 4-{[(5′-fluoro-2′-hydroxybiphenyl-3-yl)sulfonyl]amino}-2-hydroxybenzoate] the value was 13 µM.
Turning to `COC(=O)c1ccc(NS(=O)(=O)c2cc(-c3cc(F)ccc3O)c(Cl)s2)cc1O` [Example 157, methyl 4-({[5-chloro-4-(5-fluoro-2-hydroxyphenyl)-2-thienyl]sulfonyl}amino)-2-hydroxybenzoate], the IC50 in data set [1] turned out to be 2 µM. For the same compound, in the data set with NMRI mice (intraperitoneal daily for seven days, adrenal gland, brain, cerebellum, heart, intestines, kidneys, liver, lungs, mesenteric lymph node, pancreas, spleen), the “histological examinations of organs” value was “Specific lesions consistent with toxic damage were not observed”. Also, in the data set on NMRI mice (intraperitoneal injections daily for seven days), the “macro observations during and after treatment” value is “no sign of abnormal behavior or health problem”.
Turning to `COCC(C)OC(=O)c1ccc(NS(=O)(=O)c2cc(Cl)cc(Cl)c2)cc1O` (stereo not drawn) [Example 192, 2-Methoxy-1-methylethyl 4-{[(3,5-dichlorophenyl)sulfonyl]amino}-2-hydroxybenzoate], the IC50 in the data set with SW480 cells turned out to be 22.3 µM.
Consider `CCC(COC)OC(=O)c1ccc(NS(=O)(=O)c2cc(Cl)cc(Cl)c2)cc1O` (stereo not drawn) [Example 189, 1-(Methoxymethyl)propyl 4-{[(3,5-dichlorophenyl)sulfonyl]amino}-2-hydroxybenzoate], for which the IC50 in the data set on NUGC-3 cells is 16.4 µM.
For `O=C(OCCOc1ccccc1)c1ccc(NS(=O)(=O)c2cccc(-c3cc(F)ccc3O)c2)cc1O` [Example 203, 2-Phenoxyethyl 4-{[(5′-fluoro-2′-hydroxybiphenyl-3-yl)sulfonyl]amino}-2-hydroxybenzoate], in the data set on NUGC-3 cells, the IC50 turned out to be 6.8 µM.
In the case of `CCC(COC)OC(=O)c1ccc(NS(=O)(=O)c2cc(Cl)c(Cl)s2)cc1O` (stereo not drawn) [Example 195, 1-(Methoxymethyl)propyl 4-{[(4,5-dichlorothiophen-2-yl)sulfonyl]amino}-2-hydroxybenzoate], the IC50 with SW480 cells was 20.4 µM.
As to `COC(=O)c1ccc(NS(=O)(=O)c2cccc(-c3ccccc3O)c2)cc1O` [Example 82, Methyl 2-hydroxy-4-{[(2′-hydroxybiphenyl-3-yl)sulfonyl]amino}benzoate], the figures for the IC50 in the data set with F-2,6-P2 in NUGC-3 cells and with F-2,6-P2 in SW480 cells were 1.08 µM and 6.2 µM, respectively.
